Measurements taken from PubChem BioAssay (NCI).
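96-well plates; 48 h exposure; 5 concentrations. Endpoints by linear interpolation between flanking doses. Not reached: highest tested concentration assigned. GI50: concentration for 50% inhibition of growth. TGI: total growth inhibition.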

Tests used:
Test in all cases: DTP human tumour cell line panel, 48 h
SN12C renal = tested on: SN12C renal
MDA-MB-231 breast = tested on: MDA-MB-231 breast
NCI-H226 lung = tested on: NCI-H226 lung
K-562 leukemia = tested on: K-562 leukemia
SF-539 CNS = tested on: SF-539 CNS
UO-31 renal = tested on: UO-31 renal
IGROV1 ovarian = tested on: IGROV1 ovarian
SW-620 colon = tested on: SW-620 colon
RXF 393 renal = tested on: RXF 393 renal
NCI-H460 lung = tested on: NCI-H460 lung
OVCAR-5 ovarian = tested on: OVCAR-5 ovarian
SF-268 CNS = tested on: SF-268 CNS
COLO 205 colon = tested on: COLO 205 colon
NCI-H23 lung = tested on: NCI-H23 lung
A498 renal = tested on: A498 renal
EKVX NSCLC = tested on: EKVX NSCLC
HL-60(TB) leukemia = tested on: HL-60(TB) leukemia
SNB-19 CNS = tested on: SNB-19 CNS
HOP-62 NSCLC = tested on: HOP-62 NSCLC
HCT-15 colon = tested on: HCT-15 colon
MCF7 breast = tested on: MCF7 breast
NCI/ADR-RES ovarian = tested on: NCI/ADR-RES ovarian
U251 CNS = tested on: U251 CNS
UACC-257 melanoma = tested on: UACC-257 melanoma
MOLT-4 leukemia = tested on: MOLT-4 leukemia
OVCAR-8 ovarian = tested on: OVCAR-8 ovarian
SK-MEL-2 melanoma = tested on: SK-MEL-2 melanoma
OVCAR-3 ovarian = tested on: OVCAR-3 ovarian
UACC-62 melanoma = tested on: UACC-62 melanoma

Compound: O=C(CS(=O)(=O)c1oc(-c2ccc(Cl)cc2)nc1S(=O)(=O)c1ccccc1)N1CCCC1
- GI50 (SN12C renal): 12 µM
- TGI (SN12C renal): 24.9 µM
- GI50 (MDA-MB-231 breast): 1.71 µM
- TGI (MDA-MB-231 breast): 3.1 µM
- GI50 (NCI-H226 lung): 15.1 µM
- TGI (NCI-H226 lung): 39 µM
- GI50 (K-562 leukemia): 0.707 µM
- TGI (K-562 leukemia): > 100 µM
- GI50 (SF-539 CNS): 1.64 µM
- TGI (SF-539 CNS): 2.99 µM
- GI50 (UO-31 renal): 1.54 µM
- TGI (UO-31 renal): 2.96 µM
- GI50 (IGROV1 ovarian): 13.1 µM
- TGI (IGROV1 ovarian): 29.3 µM
- GI50 (SW-620 colon): 1.06 µM
- TGI (SW-620 colon): 2.41 µM
- GI50 (RXF 393 renal): 1.36 µM
- TGI (RXF 393 renal): 2.79 µM
- GI50 (NCI-H460 lung): 12.3 µM
- TGI (NCI-H460 lung): 26.3 µM
- GI50 (OVCAR-5 ovarian): 13.7 µM
- TGI (OVCAR-5 ovarian): 27.4 µM
- GI50 (SF-268 CNS): 14.9 µM
- TGI (SF-268 CNS): 43.2 µM
- GI50 (COLO 205 colon): 2.14 µM
- TGI (COLO 205 colon): 4.68 µM
- GI50 (NCI-H23 lung): 11.4 µM
- TGI (NCI-H23 lung): 26.8 µM
- GI50 (A498 renal): 14.2 µM
- TGI (A498 renal): 27.3 µM
- GI50 (EKVX NSCLC): 2.03 µM
- TGI (EKVX NSCLC): 4.9 µM
- GI50 (HL-60(TB) leukemia): 1.31 µM
- TGI (HL-60(TB) leukemia): > 100 µM
- GI50 (SNB-19 CNS): 16 µM
- TGI (SNB-19 CNS): 30.5 µM
- GI50 (HOP-62 NSCLC): 17.8 µM
- TGI (HOP-62 NSCLC): 34 µM
- GI50 (HCT-15 colon): 1.43 µM
- TGI (HCT-15 colon): 2.99 µM
- GI50 (MCF7 breast): 1.47 µM
- TGI (MCF7 breast): 3.34 µM
- GI50 (NCI/ADR-RES ovarian): 15.9 µM
- TGI (NCI/ADR-RES ovarian): 70.5 µM
- GI50 (U251 CNS): 15.9 µM
- TGI (U251 CNS): 29.8 µM
- GI50 (UACC-257 melanoma): 1.88 µM
- TGI (UACC-257 melanoma): 3.62 µM
- GI50 (MOLT-4 leukemia): 2.38 µM
- TGI (MOLT-4 leukemia): > 100 µM
- GI50 (OVCAR-8 ovarian): 11.2 µM
- TGI (OVCAR-8 ovarian): 33.2 µM
- GI50 (SK-MEL-2 melanoma): 15 µM
- TGI (SK-MEL-2 melanoma): 29 µM
- GI50 (OVCAR-3 ovarian): 1.29 µM
- TGI (OVCAR-3 ovarian): 2.71 µM
- GI50 (UACC-62 melanoma): 3.35 µM
- TGI (UACC-62 melanoma): 13.6 µM
